Reference: patent US8299035B2, “10a-azalide compound having 4-membered ring structure” (Taisho Pharmaceutucal Co., Ltd., priority 2008, dated 2012)
Values after ≈ are worked out from the molar mass of the structure shown.

Key:
Test in all cases: In vitro antibacterial activity, microbroth dilution method (CLSI method)
Type in all cases: cell-based
S. pneumoniae ATCC 49619 = details: bacteria symbol C = S. pneumoniae ATCC 49619
Experimental: (§1) In vitro antibacterial activities of the compounds of the present invention against various test bacteria were measured according to the microbroth dilution method (CLSI method). The exemplary compounds shown in Table 9 and the comparative agent 1, clarithromycin, were used as test substances. The results are shown as MIC values (minimum inhibitory concentration, μg/ml) in Table 9. [table]

H. influenzae Rd = details: bacteria symbol B = H. influenzae Rd
Experimental: as §1

[1] = system: S. pneumoniae ATCC 700904; details: bacteria symbol D = S. pneumoniae ATCC 700904
Experimental: as §1

H. influenzae ATCC 43095 = details: bacteria symbol A = H. influenzae ATCC 43095
Experimental: as §1

| MIC values (minimum inhibitory concentration) (S. pneumoniae ATCC 49619) [µg/mL] | MIC values (minimum inhibitory concentration) (H. influenzae Rd) [µg/mL] | MIC values (minimum inhibitory concentration) [1] [µg/mL] | MIC values (minimum inhibitory concentration) (H. influenzae ATCC 43095) [µg/mL] | MIC (S. pneumoniae ATCC 49619; Streptococcus pneumoniae, ATCC49619, read-out: MIC values (minimum inhibitory concentration)) [µg/mL] | MIC (H. influenzae Rd; Haemophilus influenzae, read-out: MIC values (minimum inhibitory concentration)) [µg/mL] | MIC ([1]; Streptococcus pneumoniae, ATCC700904, read-out: MIC values (minimum inhibitory concentration)) [µg/mL] | MIC (H. influenzae ATCC 43095; Haemophilus influenzae, ATCC43095, read-out: MIC values (minimum inhibitory concentration)) [µg/mL] | Compound |
| --- | --- | --- | --- | --- | --- | --- | --- | --- |
|  |  |  |  | 0.03 (≈ 0.0401 µM) | 8 (≈ 10.7 µM) | > 128 | 4 (≈ 5.35 µM) | CC[C@H]1OC(=O)[C@H](C)[C@@H](O[C@H]2C[C@@](C)(OC)[C@@H](O)[C@H](C)O2)[C@H](C)[C@@H](O[C@@H]2O[C@H](C)C[C@H](N(C)C)[C@H]2O)[C@](C)(OC)C[C@@H](C)C(=O)[C@H](C)[C@@H](O)[C@]1(C)O [Comparative agent 1, clarithromycin, reference compound] |
| 0.03 (≈ 0.0325 µM) | 4 (≈ 4.33 µM) | 0.12 (≈ 0.13 µM) | 4 (≈ 4.33 µM) |  |  |  |  | CCN(CCNC[C@@]1(O)[C@H](C)O[C@@H](O[C@H]2[C@H](C)[C@@H](O[C@@H]3O[C@H](C)C[C@H](N(C)C)[C@H]3O)[C@@](C)(OC)C[C@@H](C)[C@H](O)[C@H](C)N3CC(C3)OC(=O)[C@@H]2C)C[C@@]1(C)OC)[C@@H](C)c1ccccc1OC [Example 3] |
| 0.12 (≈ 0.129 µM) | 4 (≈ 4.29 µM) | 0.25 (≈ 0.268 µM) | 4 (≈ 4.29 µM) |  |  |  |  | COC1(C)CC(C)C(O)C(C)N2CC(C2)OC(=O)C(C)C(OC2CC(C)(OC)C(O)(CNCCNC(C)(C)c3cccc4c3ccn4C)C(C)O2)C(C)C1OC1OC(C)CC(N(C)C)C1O (stereo not shown) [Example 70] |
| 0.03 (≈ 0.032 µM) | 2 (≈ 2.13 µM) | 0.12 (≈ 0.128 µM) | 2 (≈ 2.13 µM) |  |  |  |  | COc1ccccc1C(C)(C)N(C)CCN(C)CC1(O)C(C)OC(OC2C(C)C(=O)OC3CN(C3)C(C)C(O)C(C)CC(C)(OC)C(OC3OC(C)CC(N(C)C)C3O)C2C)CC1(C)OC (stereo not shown) [Example 71] |
| 0.016 (≈ 0.0168 µM) | 4 (≈ 4.2 µM) | 0.06 (≈ 0.0631 µM) | 4 (≈ 4.2 µM) |  |  |  |  | CCN(CC(C)NCC1(O)C(C)OC(OC2C(C)C(=O)OC3CN(C3)C(C)C(O)C(C)CC(C)(OC)C(OC3OC(C)CC(N(C)C)C3O)C2C)CC1(C)OC)C(C)(C)c1ccccc1OC (stereo not shown) [Example 84] |
| 0.03 (≈ 0.0315 µM) | 4 (≈ 4.2 µM) | 0.06 (≈ 0.0629 µM) | 4 (≈ 4.2 µM) |  |  |  |  | CCN(CC(CO)NCC1(O)C(C)OC(OC2C(C)C(=O)OC3CN(C3)C(C)C(O)C(C)CC(C)(OC)C(OC3OC(C)CC(N(C)C)C3O)C2C)CC1(C)OC)C(C)c1ccccc1OC (stereo not shown) [Example 107] |
| 0.06 (≈ 0.0651 µM) | 8 (≈ 8.68 µM) | 1 (≈ 1.09 µM) | 4 (≈ 4.34 µM) |  |  |  |  | COc1cccc2c1CN(CCN(C)CC1(O)C(C)OC(OC3C(C)C(=O)OC4CN(C4)C(C)C(O)C(C)CC(C)(OC)C(OC4OC(C)CC(N(C)C)C4O)C3C)CC1(C)OC)CC2 (stereo not shown) [Example 132] |
| 0.12 (≈ 0.126 µM) | 16 (≈ 16.9 µM) | 0.5 (≈ 0.527 µM) | 8 (≈ 8.43 µM) |  |  |  |  | COc1cccc2c1CCCC2N(C)CCN(C)CC1(O)C(C)OC(OC2C(C)C(=O)OC3CN(C3)C(C)C(O)C(C)CC(C)(OC)C(OC3OC(C)CC(N(C)C)C3O)C2C)CC1(C)OC (stereo not shown) [Example 133] |
| 0.03 (≈ 0.0316 µM) | 2 (≈ 2.11 µM) | 0.12 (≈ 0.126 µM) | 2 (≈ 2.11 µM) |  |  |  |  | COc1ccccc1C(C)(C)N(C)CC1CN(CC2(O)C(C)OC(OC3C(C)C(=O)OC4CN(C4)C(C)C(O)C(C)CC(C)(OC)C(OC4OC(C)CC(N(C)C)C4O)C3C)CC2(C)OC)C1 (stereo not shown) [Example 162] |
| 0.03 (≈ 0.0309 µM) | 8 (≈ 8.24 µM) | 0.06 (≈ 0.0618 µM) | 4 (≈ 4.12 µM) |  |  |  |  | COC1(C)CC(C)C(O)C(C)N2CC(C2)OC(=O)C(C)C(OC2CC(C)(OC)C(O)(CN(C)CCN(C)C(C)c3ccccc3-c3ccccn3)C(C)O2)C(C)C1OC1OC(C)CC(N(C)C)C1O (stereo not shown) [Example 195] |
| 0.03 (≈ 0.0312 µM) | 16 (≈ 16.7 µM) | 1 (≈ 1.04 µM) | 16 (≈ 16.7 µM) |  |  |  |  | COc1ccccc1C(C)(C)N(C)Cc1cncn1CC1(O)C(C)OC(OC2C(C)C(=O)OC3CN(C3)C(C)C(O)C(C)CC(C)(OC)C(OC3OC(C)CC(N(C)C)C3O)C2C)CC1(C)OC (stereo not shown) [Example 204] |
| 0.06 (≈ 0.0649 µM) | 8 (≈ 8.66 µM) | 1 (≈ 1.08 µM) | 8 (≈ 8.66 µM) |  |  |  |  | COc1ncccc1C(C)(C)N(C)CCN(C)C[C@@]1(O)[C@H](C)O[C@@H](O[C@H]2[C@H](C)[C@@H](O[C@@H]3O[C@H](C)C[C@H](N(C)C)[C@H]3O)[C@@](C)(O)C[C@@H](C)[C@H](O)[C@H](C)N3CC(C3)OC(=O)[C@@H]2C)C[C@@]1(C)OC [Example 221] |

| Compound | MIC values (minimum inhibitory concentration) (S. pneumoniae ATCC 49619) [µg/mL] | MIC values (minimum inhibitory concentration) (H. influenzae Rd) [µg/mL] | MIC values (minimum inhibitory concentration) [1] [µg/mL] | MIC values (minimum inhibitory concentration) (H. influenzae ATCC 43095) [µg/mL] | MIC (S. pneumoniae ATCC 49619; Streptococcus pneumoniae, ATCC49619, read-out: MIC values (minimum inhibitory concentration)) [µg/mL] | MIC (H. influenzae Rd; Haemophilus influenzae, read-out: MIC values (minimum inhibitory concentration)) [µg/mL] | MIC ([1]; Streptococcus pneumoniae, ATCC700904, read-out: MIC values (minimum inhibitory concentration)) [µg/mL] | MIC (H. influenzae ATCC 43095; Haemophilus influenzae, ATCC43095, read-out: MIC values (minimum inhibitory concentration)) [µg/mL] |
| --- | --- | --- | --- | --- | --- | --- | --- | --- |
| CO[C@]1(C)C[C@H](O[C@H]2[C@H](C)[C@@H](O[C@@H]3O[C@H](C)C[C@H](N(C)C)[C@H]3O)[C@@](C)(OC)C[C@@H](C)[C@H](O)[C@H](C)N3CC(C3)OC(=O)[C@@H]2C)O[C@@H](C)[C@@H]1O (mixture of isomers) [Example 1] | 0.12 | 1 | >128 | 0.5 |  |  |  |  |
| CCN(CCNC(=O)O[C@H]1[C@H](C)O[C@@H](O[C@H]2[C@H](C)[C@@H](O[C@@H]3O[C@H](C)C[C@H](N(C)C)[C@H]3O)[C@@](C)(OC)C[C@@H](C)[C@H](O)[C@H](C)N3CC(C3)OC(=O)[C@@H]2C)C[C@@]1(C)OC)[C@@H](C)c1ccccc1OC [Example 2] | 0.06 (≈ 0.064 µM) | 8 (≈ 8.54 µM) | 0.25 (≈ 0.267 µM) | 4 (≈ 4.27 µM) |  |  |  |  |
| CCN(CCNC[C@@]1(O)[C@H](C)O[C@@H](O[C@H]2[C@H](C)[C@@H](O[C@@H]3O[C@H](C)C[C@H](N(C)C)[C@H]3O)[C@@](C)(OC)C[C@@H](C)C(=O)[C@H](C)N3CC(C3)OC(=O)[C@@H]2C)C[C@@]1(C)OC)[C@@H](C)c1ccccc1OC [Example 5] | 0.03 (≈ 0.0326 µM) | 8 (≈ 8.68 µM) | 0.5 (≈ 0.543 µM) | 4 (≈ 4.34 µM) |  |  |  |  |
| CCN(CCNC(=O)O[C@H]1[C@H](C)O[C@@H](O[C@H]2[C@H](C)[C@@H](O[C@@H]3O[C@H](C)C[C@H](N(C)C)[C@H]3O)[C@@](C)(O)C[C@@H](C)[C@H](O)[C@H](C)N3CC(C3)OC(=O)[C@@H]2C)C[C@@]1(C)OC)[C@@H](C)c1ccccc1OC [Example 12] | 0.03 (≈ 0.0325 µM) | 8 (≈ 8.67 µM) | 0.25 (≈ 0.271 µM) | 8 (≈ 8.67 µM) |  |  |  |  |
